Reference: ChEMBL document CHEMBL1129040, “Inhibitors of acyl CoA:cholesterol acyltransferase” (J Med Chem, 1996)

How the values were obtained:
Cricetinae gen. sp. [1] = assay: In vivo activity to reduce liver cholesterol esters (hamster) at 50 mpk; assay type: functional, Cricetulus griseus
[2] = molecular target: T1, Sterol O-acyltransferase 1 (Rattus norvegicus) (UniProt O70536); assay: In vitro inhibitory activity against acyl-coenzyme A:cholesterol acyltransferase 1 from rat hepatic microsomes at 10 uM
T1 sequence (whole entry): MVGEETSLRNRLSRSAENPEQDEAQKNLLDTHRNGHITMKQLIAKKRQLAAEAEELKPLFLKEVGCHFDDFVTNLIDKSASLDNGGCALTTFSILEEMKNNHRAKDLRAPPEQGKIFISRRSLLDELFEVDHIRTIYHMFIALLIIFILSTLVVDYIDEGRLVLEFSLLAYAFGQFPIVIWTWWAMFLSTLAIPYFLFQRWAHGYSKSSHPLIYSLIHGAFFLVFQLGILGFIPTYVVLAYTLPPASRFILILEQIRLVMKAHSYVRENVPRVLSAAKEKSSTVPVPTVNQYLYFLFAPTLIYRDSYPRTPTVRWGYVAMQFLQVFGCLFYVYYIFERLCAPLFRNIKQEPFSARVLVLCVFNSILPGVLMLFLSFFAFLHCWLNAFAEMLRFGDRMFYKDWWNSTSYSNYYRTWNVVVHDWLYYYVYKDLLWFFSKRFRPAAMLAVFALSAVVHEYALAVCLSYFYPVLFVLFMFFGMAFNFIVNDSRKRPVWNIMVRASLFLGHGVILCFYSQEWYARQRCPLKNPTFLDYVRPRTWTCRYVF

[3] = molecular target: T2, Sterol O-acyltransferase 1 (Rattus norvegicus, UniProt O70536); assay: In vitro inhibitory activity against acyl-coenzyme A:cholesterol acyltransferase 1 from rat hepatic microsomes.
T2 sequence (O70536 whole entry): T1 sequence (whole entry)

[4] = molecular target: T1, Sterol O-acyltransferase 1 (Rattus norvegicus); assay: (§1) In vitro inhibitory activity against Acyl coenzyme A:cholesterol acyltransferase 1 from rat hepatic microsomes at 10 uM
[5] = molecular target: T2, Sterol O-acyltransferase 1; assay: as §1
Cricetinae gen. sp. [6] = assay: In vivo activity to reduce liver cholesterol esters (hamster) at 1 mg/kg/day; assay type: functional, Cricetulus griseus
Cricetinae gen. sp. [7] = assay: In vivo activity to reduce liver cholesterol esters (hamster) at 5 mg/kg/day; assay type: functional, Cricetulus griseus

With `O=C(NC(Cc1ccccc1)c1ccc(O)cc1)C(c1ccccc1)c1ccccc1` (stereo not given) the Reduction (Cricetinae gen. sp. [1]) was 69% and the inhibition [2] was 95%.

Molecule `O=C(N[C@H]1c2ccccc2CC[C@@H]1c1ccc(O)cc1)C(c1ccccc1)c1ccccc1` has an IC50 [3] of 700 nM, a Reduction (Cricetinae gen. sp. [1]) of 58% and an inhibition [2] of 93%.

With `COc1ccc([C@H]2CCCC[C@H]2NC(=O)C(c2ccccc2)c2ccccc2)cc1` the IC50 [3] was 3000 nM, the Reduction (Cricetinae gen. sp. [1]) was 20% and the inhibition [2] was 77%.

Work on `COc1ccc(CC(NC(=O)C(c2ccccc2)c2ccccc2)c2ccccc2)cc1` (stereo not given) yielded a Reduction (Cricetinae gen. sp. [1]) of 65% and an inhibition [2] of 92%.

`O=C(N[C@H]1c2ccccc2CC[C@@H]1c1ccccc1O)C(c1ccccc1)c1ccccc1` was tested, and the Reduction (Cricetinae gen. sp. [1]) was 0%.

`O=C(N[C@H]1c2ccccc2CCC[C@@H]1c1ccc(O)cc1)C(c1ccccc1)c1ccccc1` gave a Reduction (Cricetinae gen. sp. [1]) of 61%.

Molecule `O=C(N[C@@H]1c2ccccc2CC[C@@H]1c1ccncc1)C(c1ccccc1)c1ccccc1` has a Reduction (Cricetinae gen. sp. [1]) of 39%.

Molecule `O=C(N[C@H]1c2ccc(O)cc2CC[C@@H]1c1ccccc1)C(c1ccccc1)c1ccccc1` has an IC50 [3] of 900 nM, a Reduction (Cricetinae gen. sp. [1]) of 0% and an inhibition [2] of 92%.

Work on `O=C(NC(Cc1ccc(O)cc1)c1ccc(O)cc1)C(c1ccccc1)c1ccccc1` (stereo not given) yielded a Reduction (Cricetinae gen. sp. [1]) of 40%.

Molecule `Nc1ccc([C@H]2CCc3ccccc3[C@H]2NC(=O)C(c2ccccc2)c2ccccc2)cc1` has a Reduction (Cricetinae gen. sp. [1]) of 57%.

`O=C(NC(Cc1ccc(O)cc1)c1cccc(O)c1)C(c1ccccc1)c1ccccc1` (stereo not given) showed a Reduction (Cricetinae gen. sp. [1]) of 0%.

With `O=C(N[C@@H]1c2c(O)cccc2CC[C@@H]1c1ccccc1)C(c1ccccc1)c1ccccc1` the Reduction (Cricetinae gen. sp. [1]) was 20%.

`O=C(N[C@H]1c2ccccc2OC[C@@H]1c1ccc(O)cc1)C(c1ccccc1)c1ccccc1` was tested, and the Reduction (Cricetinae gen. sp. [1]) was 0%.

For `O=C(N[C@@H]1c2cccc(O)c2CC[C@@H]1c1ccccc1)C(c1ccccc1)c1ccccc1`, the Reduction (Cricetinae gen. sp. [1]) was 0%.

Molecule `COc1ccc([C@H]2CCCC[C@@H]2NC(=O)C(c2ccccc2)c2ccccc2)cc1` has an IC50 [3] of 100 nM, a Reduction (Cricetinae gen. sp. [1]) of 0% and an inhibition [2] of 100%.

Molecule `COc1ccc([C@H]2CCc3ccccc3[C@@H]2NC(=O)C(c2ccccc2)c2ccccc2)cc1` has a Reduction (Cricetinae gen. sp. [1]) of 0%.

Work on `O=C(N[C@@H]1c2ccc(O)cc2CC[C@@H]1c1ccccc1)C(c1ccccc1)c1ccccc1` yielded an IC50 [3] of 900 nM, a Reduction (Cricetinae gen. sp. [1]) of 45% and an inhibition [2] of 87%.

For `O=C(NC1CCCc2ccccc21)C(c1ccccc1)c1ccccc1` (stereo not given), the inhibition [4] was 37%.

`O=C(N[C@@H]1c2ccccc2CC[C@@H]1c1cccc(O)c1)C(c1ccccc1)c1ccccc1` was tested, and the IC50 [3] was 1800 nM, the Reduction (Cricetinae gen. sp. [1]) was 0% and the inhibition [2] was 77%.

`O=C(N[C@@H]1c2cc(O)ccc2CC[C@@H]1c1ccccc1)C(c1ccccc1)c1ccccc1` gave an IC50 [3] of 2400 nM, a Reduction (Cricetinae gen. sp. [1]) of 38% and an inhibition [2] of 84%.

In the case of `COc1cccc([C@H]2CCc3ccccc3[C@H]2NC(=O)C(c2ccccc2)c2ccccc2)c1`, the Reduction (Cricetinae gen. sp. [1]) is reported as 0%.

With `O=C(NC(Cc1ccccc1)c1cccc(O)c1)C(c1ccccc1)c1ccccc1` (stereo not given) the Reduction (Cricetinae gen. sp. [1]) was 19%.

`O=C(N[C@H]1CCCC[C@@H]1c1ccc(O)cc1)C(c1ccccc1)c1ccccc1` showed an IC50 [3] of 600 nM, a Reduction (Cricetinae gen. sp. [1]) of 0% and an inhibition [2] of 94%.

`O=C(NC1c2ccccc2CC1c1ccc(O)cc1)C(c1ccccc1)c1ccccc1` (racemic) showed an IC50 [5] of 100 nM, a Reduction (Cricetinae gen. sp. [6]) of 27% and a Reduction (Cricetinae gen. sp. [7]) of 63%.

`O=C(N[C@H]1c2cc(O)ccc2CC[C@@H]1c1ccccc1)C(c1ccccc1)c1ccccc1` gave an IC50 [3] of 1300 nM, a Reduction (Cricetinae gen. sp. [1]) of 78% and an inhibition [2] of 94%.

For `COc1ccc(CC(NC(=O)C(c2ccccc2)c2ccccc2)c2ccc(OC)cc2)cc1` (stereo not given), the Reduction (Cricetinae gen. sp. [1]) was 32% and the inhibition [2] was 40%.

In the case of `COc1ccc([C@H]2CCc3ccc(OC)cc3[C@H]2NC(=O)C(c2ccccc2)c2ccccc2)cc1`, the Reduction (Cricetinae gen. sp. [1]) is reported as 0%.

For `O=C(NC(Cc1ccc(O)cc1)c1ccccc1)C(c1ccccc1)c1ccccc1` (stereo not given), the inhibition [2] was 92%.

`O=C(N[C@@H]1c2cc(O)ccc2CC[C@@H]1c1ccc(O)cc1)C(c1ccccc1)c1ccccc1` gave a Reduction (Cricetinae gen. sp. [1]) of 0%.

`COc1ccc(C(Cc2ccccc2)NC(=O)C(c2ccccc2)c2ccccc2)cc1` (stereo not given) gave a Reduction (Cricetinae gen. sp. [1]) of 69% and an inhibition [2] of 88%.

With `COc1ccccc1[C@H]1CCc2ccccc2[C@H]1NC(=O)C(c1ccccc1)c1ccccc1` (stereo in doubt; trans) the Reduction (Cricetinae gen. sp. [1]) was 0%.

`O=C(N[C@H]1c2cccc(O)c2CC[C@@H]1c1ccccc1)C(c1ccccc1)c1ccccc1` showed a Reduction (Cricetinae gen. sp. [1]) of 0%.

`COc1cccc([C@H]2CCc3ccccc3[C@@H]2NC(=O)C(c2ccccc2)c2ccccc2)c1` showed a Reduction (Cricetinae gen. sp. [1]) of 0%.

Work on `O=C(N[C@H]1c2ccccc2C[C@@H]1c1ccc(O)cc1)C(c1ccccc1)c1ccccc1` yielded an IC50 [3] of 230 nM, a Reduction (Cricetinae gen. sp. [1]) of 52% and an inhibition [2] of 99%.

`O=C(N[C@@H]1CCCC[C@@H]1c1ccc(O)cc1)C(c1ccccc1)c1ccccc1` showed an IC50 [3] of 3000 nM, a Reduction (Cricetinae gen. sp. [1]) of 0% and an inhibition [2] of 80%.

`COc1ccc2c(c1)[C@H](NC(=O)C(c1ccccc1)c1ccccc1)[C@@H](c1ccc(O)cc1)CC2` was tested, and the IC50 [3] was 400 nM, the Reduction (Cricetinae gen. sp. [1]) was 97% and the inhibition [2] was 98%.

`O=C(N[C@H]1c2ccccc2CC[C@@H]1c1cccc(O)c1)C(c1ccccc1)c1ccccc1` gave an IC50 [3] of 700 nM, a Reduction (Cricetinae gen. sp. [1]) of 0% and an inhibition [2] of 98%.

In the case of `O=C(N[C@@H]1c2ccccc2OC[C@@H]1c1ccc(O)cc1)C(c1ccccc1)c1ccccc1`, the Reduction (Cricetinae gen. sp. [1]) is reported as 0%.

For `O=C(N[C@@H]1c2ccccc2C[C@@H]1c1ccc(O)cc1)C(c1ccccc1)c1ccccc1`, the IC50 [5] was 40 nM, the Reduction (Cricetinae gen. sp. [6]) was 73% and the IC50 [3] was 100 nM. The Reduction (Cricetinae gen. sp. [7]) was 88%, the Reduction (Cricetinae gen. sp. [1]) was 91% and the inhibition [2] was 99%.

`O=C(N[C@@H]1c2ccccc2CC[C@@H]1c1ccc(O)cc1)C(c1ccccc1)c1ccccc1` gave an IC50 [3] of 350 nM, a Reduction (Cricetinae gen. sp. [1]) of 16% and an inhibition [2] of 91%.

With `COc1ccc([C@H]2CCc3ccccc3[C@H]2NC(=O)C(c2ccccc2)c2ccccc2)cc1` the Reduction (Cricetinae gen. sp. [1]) was 0%.

For `COc1ccc2c(c1)C(NC(=O)C(c1ccccc1)c1ccccc1)CCC2` (stereo not given), the Reduction (Cricetinae gen. sp. [1]) was 0%.

Molecule `O=C(N[C@H]1c2ccccc2C[C@H]1c1ccc(O)cc1)C(c1ccccc1)c1ccccc1` has an IC50 [5] of 13000 nM, a Reduction (Cricetinae gen. sp. [6]) of 0% and a Reduction (Cricetinae gen. sp. [7]) of 0%.

For `O=C(N[C@@H]1c2ccccc2CCC[C@@H]1c1ccc(O)cc1)C(c1ccccc1)c1ccccc1`, the Reduction (Cricetinae gen. sp. [1]) was 0%.
